Values of other authors, collected in patent US7217431B2, “Controlled agglomeration” (LifeCycle Pharma A/S, priority 2001, dated 2007).
Like-named read-outs stand apart in the source and are kept apart here.

Compound	Bioavailability (Table 2, in words)	Bioavailability (in vivo)
CC1CC(OC(=O)C(O)c2ccccc2)CC(C)(C)C1 (centres unmarked) [Cyclandelate]	Low	–
CC(=O)OC[C@H]1O[C@@H]([S-])[C@H](OC(C)=O)[C@@H](OC(C)=O)[C@@H]1OC(C)=O.CCP(CC)CC.[Au+] [Auranofin]	–	Low (15–25%)
OCCN1CCN(CCCN2c3ccccc3Sc3ccc(Cl)cc32)CC1 [Perphenazine]	Low	–
C#C[C@]1(O)CC[C@H]2[C@@H]3CCC4=Cc5oncc5C[C@]4(C)[C@H]3CC[C@@]21C [Danazol]	Low	–
COc1ccc(CCN2CCC(Nc3nc4ccccc4n3Cc3ccc(F)cc3)CC2)cc1 [Astemizole]	Low–moderate	–
